Values quoted from earlier work in patent US20220235393A1, “SURROGATE VIRUS ASSAYS AND METHODS” (priority 2019, published 2022).

Tested on: ASFV

O=C(O)CC(O)(CC(=O)O)C(=O)O [citric acid]
inactivation of virus applied to wood surfaces: completely inactivated
